From ChEMBL document CHEMBL4507315 (2021)

Tests used:
[1] = molecular target: Serine/threonine-protein kinase Nek1 (Homo sapiens) (UniProt Q96PY6); settings: Compound concentration 100.0 nM
[2] = molecular target: Casein kinase I isoform gamma-1 (Homo sapiens) (UniProt Q9HCP0); settings: Compound concentration 100.0 nM
[3] = molecular target: Cyclin-dependent kinase 15 (Homo sapiens) (UniProt Q96Q40); settings: Compound concentration 100.0 nM
[4] = molecular target: Serine/threonine-protein kinase PAK 6 (Homo sapiens) (UniProt Q9NQU5); settings: Compound concentration 100.0 nM
[5] = molecular target: Wee1-like protein kinase (Homo sapiens) (UniProt P30291); settings: Compound concentration 100.0 nM
[6] = molecular target: Activated CDC42 kinase 1 (Homo sapiens) (UniProt Q07912); settings: Compound concentration 100.0 nM
[7] = molecular target: Mitogen-activated protein kinase 8 (Homo sapiens) (UniProt P45983); settings: Compound concentration 100.0 nM
[8] = molecular target: MAP kinase-interacting serine/threonine-protein kinase 2 (Homo sapiens) (UniProt Q9HBH9); settings: Compound concentration 100.0 nM
[9] = molecular target: SNF-related serine/threonine-protein kinase (Homo sapiens) (UniProt Q9NRH2); settings: Compound concentration 100.0 nM
[10] = molecular target: Serine/threonine-protein kinase Nek3 (Homo sapiens) (UniProt P51956); settings: Compound concentration 100.0 nM
[11] = molecular target: Citron Rho-interacting kinase (Homo sapiens) (UniProt O14578); settings: Compound concentration 100.0 nM
[12] = molecular target: Platelet-derived growth factor receptor beta (Homo sapiens) (UniProt P09619); settings: Compound concentration 100.0 nM
[13] = molecular target: Serine/threonine-protein kinase N1 (Homo sapiens) (UniProt Q16512); settings: Compound concentration 100.0 nM
[14] = molecular target: TGF-beta receptor type-1 (Homo sapiens) (UniProt P36897); settings: Compound concentration 100.0 nM
[15] = molecular target: Receptor-type tyrosine-protein kinase FLT3 (Homo sapiens) (UniProt P36888); settings: Compound concentration 100.0 nM
[16] = tested on: Epidermal growth factor receptor (Homo sapiens), P00533 [UNDEFINED MUTATION]; settings: Compound concentration 100.0 nM
[17] = molecular target: Serine/threonine-protein kinase VRK2 (Homo sapiens) (UniProt Q86Y07); settings: Compound concentration 100.0 nM
[18] = molecular target: Myosin light chain kinase (Homo sapiens) (UniProt Q32MK0); settings: Compound concentration 100.0 nM
[19] = molecular target: Bone morphogenetic protein receptor type-1A (Homo sapiens) (UniProt P36894); settings: Compound concentration 100.0 nM
[20] = molecular target: Casein kinase I isoform alpha-like (Homo sapiens) (UniProt Q8N752); settings: Compound concentration 100.0 nM
[21] = tested on: ALK tyrosine kinase receptor (Homo sapiens), Q9UM73 [C1156Y]; settings: Compound concentration 100.0 nM
[22] = tested on: Fibroblast growth factor receptor 3 (Homo sapiens), P22607 [G697C]; settings: Compound concentration 100.0 nM
[23] = molecular target: Ephrin type-A receptor 5 (Homo sapiens) (UniProt P54756); settings: Compound concentration 100.0 nM
[24] = molecular target: Phosphatidylinositol 4-kinase beta (Homo sapiens) (UniProt Q9UBF8); settings: Compound concentration 100.0 nM
[25] = molecular target: Activin receptor type-1-like (Homo sapiens) (UniProt P37023); settings: Compound concentration 100.0 nM
[26] = molecular target: Ribosomal protein S6 kinase alpha-2 (Homo sapiens) (UniProt Q15349); settings: Compound concentration 100.0 nM
[27] = molecular target: Tyrosine-protein kinase SYK (Homo sapiens) (UniProt P43405); settings: Compound concentration 100.0 nM
[28] = molecular target: ALK tyrosine kinase receptor (Homo sapiens) (UniProt Q9UM73); settings: Compound concentration 100.0 nM
[29] = molecular target: Phosphatidylinositol 4-phosphate 5-kinase type-1 alpha (Homo sapiens) (UniProt Q99755); settings: Compound concentration 100.0 nM
[30] = molecular target: MAP/microtubule affinity-regulating kinase 4 (Homo sapiens) (UniProt Q96L34); settings: Compound concentration 100.0 nM
[31] = molecular target: Serine/threonine-protein kinase SBK1 (Homo sapiens) (UniProt Q52WX2); settings: Compound concentration 100.0 nM
[32] = tested on: Epidermal growth factor receptor (Homo sapiens), P00533 [L861Q]; settings: Compound concentration 100.0 nM
[33] = molecular target: Mitogen-activated protein kinase kinase kinase 19 (Homo sapiens) (UniProt Q56UN5); settings: Compound concentration 100.0 nM
[34] = molecular target: Homeodomain-interacting protein kinase 2 (Homo sapiens) (UniProt Q9H2X6); settings: Compound concentration 100.0 nM
[35] = molecular target: Microtubule-associated serine/threonine-protein kinase 1 (Homo sapiens) (UniProt Q9Y2H9); settings: Compound concentration 100.0 nM
[36] = molecular target: Alpha-1B adrenergic receptor (Homo sapiens) (UniProt P35368); settings: Compound concentration 10.0 uM
[37] = molecular target: Calcium/calmodulin-dependent protein kinase type 1 (Homo sapiens) (UniProt Q14012); settings: Compound concentration 100.0 nM
[38] = molecular target: Serine/threonine-protein kinase MARK2 (Homo sapiens) (UniProt Q7KZI7); settings: Compound concentration 100.0 nM
[39] = molecular target: NUAK family SNF1-like kinase 1 (Homo sapiens) (UniProt O60285); settings: Compound concentration 100.0 nM
[40] = molecular target: Ephrin type-B receptor 1 (Homo sapiens) (UniProt P54762); settings: Compound concentration 100.0 nM
[41] = molecular target: Sigma non-opioid intracellular receptor 1 (Homo sapiens) (UniProt Q99720); settings: Compound concentration 10.0 uM
[42] = molecular target: Dual specificity protein kinase CLK1 (Homo sapiens) (UniProt P49759); settings: Compound concentration 100.0 nM
[43] = molecular target: Myosin-IIIa (Homo sapiens) (UniProt Q8NEV4); settings: Compound concentration 100.0 nM
[44] = molecular target: Vascular endothelial growth factor receptor 3 (Homo sapiens) (UniProt P35916); settings: Compound concentration 100.0 nM
[45] = molecular target: Cyclin-dependent kinase 3 (Homo sapiens) (UniProt Q00526); settings: Compound concentration 100.0 nM
[46] = molecular target: Serine/threonine-protein kinase RIO1 (Homo sapiens) (UniProt Q9BRS2); settings: Compound concentration 100.0 nM

Myosin light chain kinase (Homo sapiens), sequence (Q32MK0 whole entry): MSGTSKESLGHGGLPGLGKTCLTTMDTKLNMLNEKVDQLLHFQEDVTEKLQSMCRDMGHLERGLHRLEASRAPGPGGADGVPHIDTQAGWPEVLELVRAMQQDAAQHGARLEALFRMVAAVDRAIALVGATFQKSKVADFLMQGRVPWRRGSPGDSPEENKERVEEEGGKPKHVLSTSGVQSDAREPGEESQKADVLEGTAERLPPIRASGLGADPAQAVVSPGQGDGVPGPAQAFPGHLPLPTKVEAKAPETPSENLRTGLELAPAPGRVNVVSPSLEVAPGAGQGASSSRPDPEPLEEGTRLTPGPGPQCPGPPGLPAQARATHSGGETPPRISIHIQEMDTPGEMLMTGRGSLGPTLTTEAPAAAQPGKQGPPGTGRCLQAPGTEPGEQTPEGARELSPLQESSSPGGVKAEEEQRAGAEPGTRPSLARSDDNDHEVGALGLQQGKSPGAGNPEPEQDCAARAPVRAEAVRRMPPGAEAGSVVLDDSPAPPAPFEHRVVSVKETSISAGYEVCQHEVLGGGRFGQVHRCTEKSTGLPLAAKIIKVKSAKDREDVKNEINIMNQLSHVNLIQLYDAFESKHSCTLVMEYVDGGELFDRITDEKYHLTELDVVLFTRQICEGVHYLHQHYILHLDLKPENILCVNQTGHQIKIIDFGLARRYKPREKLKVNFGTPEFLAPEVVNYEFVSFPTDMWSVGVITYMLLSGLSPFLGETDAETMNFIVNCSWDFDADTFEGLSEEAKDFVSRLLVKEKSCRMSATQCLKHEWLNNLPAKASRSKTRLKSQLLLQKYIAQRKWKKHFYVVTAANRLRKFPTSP
Dual specificity protein kinase CLK1 (Homo sapiens), sequence (P49759 whole entry, looked up): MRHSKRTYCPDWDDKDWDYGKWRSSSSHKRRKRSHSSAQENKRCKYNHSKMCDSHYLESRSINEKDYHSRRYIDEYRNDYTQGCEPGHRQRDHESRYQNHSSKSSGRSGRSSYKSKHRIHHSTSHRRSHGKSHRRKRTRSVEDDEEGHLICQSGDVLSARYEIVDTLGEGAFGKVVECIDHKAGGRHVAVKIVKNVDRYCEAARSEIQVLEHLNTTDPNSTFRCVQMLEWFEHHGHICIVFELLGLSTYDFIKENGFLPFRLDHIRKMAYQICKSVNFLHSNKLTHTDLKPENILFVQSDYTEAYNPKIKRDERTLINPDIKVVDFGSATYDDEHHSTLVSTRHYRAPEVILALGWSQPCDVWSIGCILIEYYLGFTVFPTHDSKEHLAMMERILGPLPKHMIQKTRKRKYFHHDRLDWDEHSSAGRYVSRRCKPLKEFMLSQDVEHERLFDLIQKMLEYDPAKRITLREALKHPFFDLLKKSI
Serine/threonine-protein kinase N1 (Homo sapiens), sequence (Q16512 2-942 limits assumed): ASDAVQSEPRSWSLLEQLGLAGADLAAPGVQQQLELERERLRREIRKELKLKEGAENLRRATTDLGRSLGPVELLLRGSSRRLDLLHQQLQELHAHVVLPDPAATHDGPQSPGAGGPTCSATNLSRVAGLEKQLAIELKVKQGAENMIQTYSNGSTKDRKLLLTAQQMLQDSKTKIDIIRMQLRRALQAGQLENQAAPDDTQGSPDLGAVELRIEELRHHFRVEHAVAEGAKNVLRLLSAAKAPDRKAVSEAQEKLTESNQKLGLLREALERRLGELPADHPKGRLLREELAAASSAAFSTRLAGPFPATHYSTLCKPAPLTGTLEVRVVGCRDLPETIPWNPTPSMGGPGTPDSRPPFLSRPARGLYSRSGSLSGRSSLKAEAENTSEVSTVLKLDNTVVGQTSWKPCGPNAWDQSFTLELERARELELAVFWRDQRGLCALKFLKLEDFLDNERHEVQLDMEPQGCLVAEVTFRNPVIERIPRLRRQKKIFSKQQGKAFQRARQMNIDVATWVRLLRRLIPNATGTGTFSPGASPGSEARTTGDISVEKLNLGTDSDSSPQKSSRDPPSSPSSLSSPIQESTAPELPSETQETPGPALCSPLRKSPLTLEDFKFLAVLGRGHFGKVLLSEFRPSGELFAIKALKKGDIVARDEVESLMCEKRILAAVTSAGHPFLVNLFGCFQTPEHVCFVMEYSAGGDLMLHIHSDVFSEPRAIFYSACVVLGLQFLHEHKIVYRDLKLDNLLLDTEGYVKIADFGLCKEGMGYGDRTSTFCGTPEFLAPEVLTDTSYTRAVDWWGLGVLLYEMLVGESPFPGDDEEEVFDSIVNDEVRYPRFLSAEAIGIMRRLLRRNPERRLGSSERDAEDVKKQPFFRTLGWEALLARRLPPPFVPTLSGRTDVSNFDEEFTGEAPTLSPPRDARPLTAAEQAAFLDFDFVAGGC
Serine/threonine-protein kinase VRK2 (Homo sapiens), sequence (Q86Y07 whole entry): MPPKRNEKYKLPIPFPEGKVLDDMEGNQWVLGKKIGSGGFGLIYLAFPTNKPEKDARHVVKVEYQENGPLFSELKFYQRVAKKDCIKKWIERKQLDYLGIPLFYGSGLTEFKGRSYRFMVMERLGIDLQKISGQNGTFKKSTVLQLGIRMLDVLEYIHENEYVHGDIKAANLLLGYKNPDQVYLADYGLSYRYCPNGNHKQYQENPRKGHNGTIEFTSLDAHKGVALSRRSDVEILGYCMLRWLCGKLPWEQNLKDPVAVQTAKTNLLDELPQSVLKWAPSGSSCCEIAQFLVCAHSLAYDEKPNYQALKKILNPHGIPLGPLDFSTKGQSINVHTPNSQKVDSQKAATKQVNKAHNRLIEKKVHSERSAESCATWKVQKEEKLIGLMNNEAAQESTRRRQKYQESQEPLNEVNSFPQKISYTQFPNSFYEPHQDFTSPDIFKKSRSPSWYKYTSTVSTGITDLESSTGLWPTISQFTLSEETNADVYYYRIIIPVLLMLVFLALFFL
Serine/threonine-protein kinase PAK 6 (Homo sapiens), sequence (Q9NQU5 whole entry, looked up): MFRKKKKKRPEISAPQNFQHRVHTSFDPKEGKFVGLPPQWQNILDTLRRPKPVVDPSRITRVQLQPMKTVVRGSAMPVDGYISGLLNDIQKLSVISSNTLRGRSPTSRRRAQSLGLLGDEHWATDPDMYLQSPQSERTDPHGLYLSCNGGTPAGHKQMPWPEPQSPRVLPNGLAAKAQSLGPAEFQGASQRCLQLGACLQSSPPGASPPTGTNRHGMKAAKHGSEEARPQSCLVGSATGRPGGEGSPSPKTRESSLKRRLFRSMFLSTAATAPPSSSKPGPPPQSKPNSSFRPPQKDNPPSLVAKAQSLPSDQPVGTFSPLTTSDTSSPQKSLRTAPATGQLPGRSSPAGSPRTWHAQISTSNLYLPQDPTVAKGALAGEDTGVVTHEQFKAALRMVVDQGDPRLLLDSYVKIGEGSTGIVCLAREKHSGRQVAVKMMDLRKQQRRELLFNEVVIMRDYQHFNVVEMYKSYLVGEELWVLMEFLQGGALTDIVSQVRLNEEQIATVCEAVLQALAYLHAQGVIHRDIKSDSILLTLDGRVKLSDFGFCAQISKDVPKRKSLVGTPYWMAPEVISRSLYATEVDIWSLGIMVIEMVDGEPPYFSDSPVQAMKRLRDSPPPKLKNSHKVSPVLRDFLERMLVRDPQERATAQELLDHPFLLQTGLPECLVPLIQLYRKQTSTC
NUAK family SNF1-like kinase 1 (Homo sapiens), sequence (O60285 whole entry): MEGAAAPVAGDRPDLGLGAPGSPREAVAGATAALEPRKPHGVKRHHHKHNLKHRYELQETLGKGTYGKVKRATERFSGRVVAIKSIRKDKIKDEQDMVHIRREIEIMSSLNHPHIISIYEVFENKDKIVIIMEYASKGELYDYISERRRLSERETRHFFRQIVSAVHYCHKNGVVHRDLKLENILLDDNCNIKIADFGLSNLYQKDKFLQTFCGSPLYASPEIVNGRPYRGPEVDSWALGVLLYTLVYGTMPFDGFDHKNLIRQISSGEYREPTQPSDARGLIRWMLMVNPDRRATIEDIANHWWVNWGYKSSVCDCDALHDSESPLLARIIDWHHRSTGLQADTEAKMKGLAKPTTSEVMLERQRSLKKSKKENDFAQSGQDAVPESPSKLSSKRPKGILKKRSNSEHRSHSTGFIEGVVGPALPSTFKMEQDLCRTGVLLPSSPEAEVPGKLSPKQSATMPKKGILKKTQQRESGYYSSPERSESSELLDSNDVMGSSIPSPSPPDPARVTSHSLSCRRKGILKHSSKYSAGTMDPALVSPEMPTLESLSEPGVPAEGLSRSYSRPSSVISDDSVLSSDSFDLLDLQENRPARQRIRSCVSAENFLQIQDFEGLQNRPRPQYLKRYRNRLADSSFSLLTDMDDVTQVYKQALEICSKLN
Ephrin type-B receptor 1 (Homo sapiens), sequence (P54762 whole entry): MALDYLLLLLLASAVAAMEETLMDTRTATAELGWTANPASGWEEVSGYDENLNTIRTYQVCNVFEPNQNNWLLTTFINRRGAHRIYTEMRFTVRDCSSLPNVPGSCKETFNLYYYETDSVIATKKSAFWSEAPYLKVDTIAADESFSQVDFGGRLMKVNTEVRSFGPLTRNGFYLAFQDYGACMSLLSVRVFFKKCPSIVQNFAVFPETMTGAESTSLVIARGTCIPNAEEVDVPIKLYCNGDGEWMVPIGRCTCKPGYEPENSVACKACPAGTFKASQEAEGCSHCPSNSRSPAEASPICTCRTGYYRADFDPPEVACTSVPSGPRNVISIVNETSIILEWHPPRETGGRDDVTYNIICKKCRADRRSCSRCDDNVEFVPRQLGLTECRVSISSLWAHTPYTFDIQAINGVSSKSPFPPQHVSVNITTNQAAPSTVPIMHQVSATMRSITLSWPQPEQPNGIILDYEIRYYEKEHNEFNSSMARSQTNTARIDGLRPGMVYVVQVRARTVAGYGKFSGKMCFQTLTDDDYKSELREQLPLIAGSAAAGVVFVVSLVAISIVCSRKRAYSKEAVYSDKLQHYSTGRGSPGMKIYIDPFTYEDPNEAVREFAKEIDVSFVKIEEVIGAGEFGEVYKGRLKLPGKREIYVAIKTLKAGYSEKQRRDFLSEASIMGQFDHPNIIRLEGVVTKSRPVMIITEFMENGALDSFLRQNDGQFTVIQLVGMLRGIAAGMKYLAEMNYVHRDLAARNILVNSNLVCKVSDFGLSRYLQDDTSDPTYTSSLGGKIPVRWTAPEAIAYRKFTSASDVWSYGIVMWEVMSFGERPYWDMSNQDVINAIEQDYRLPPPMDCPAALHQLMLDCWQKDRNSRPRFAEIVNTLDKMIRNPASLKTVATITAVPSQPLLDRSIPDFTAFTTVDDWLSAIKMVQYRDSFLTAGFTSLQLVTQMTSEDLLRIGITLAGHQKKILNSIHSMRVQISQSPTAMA

O=C(NCCCC1CCCCC1)c1ccc(CNC(=O)c2cnn(-c3ccccc3)c2C(F)(F)F)cc1 [SR-321]
inactive: residual activity [1] 58% | residual activity [2] 100% | residual activity [3] 77% | residual activity [4] 100% | residual activity [5] 97% | residual activity [6] 100% | residual activity [7] 99% | residual activity [8] 100% | residual activity [9] 100% | residual activity [10] 100% | residual activity [11] 86% | residual activity [12] 100% | residual activity [13] 100% | residual activity [14] 89% | residual activity [15] 100% | residual activity [16] 100% | residual activity [17] 100% | residual activity [18] 92% | residual activity [19] 100% | residual activity [20] 94% | residual activity [21] 100% | residual activity [22] 100% | residual activity [23] 92% | residual activity [24] 77% | residual activity [25] 100% | residual activity [26] 100% | residual activity [27] 100% | residual activity [28] 100% | residual activity [29] 100% | residual activity [30] 98% | residual activity [31] 100% | residual activity [32] 100% | residual activity [33] 89% | residual activity [34] 100% | residual activity [35] 88% | inhibition [36] -3.62% | residual activity [37] 100% | residual activity [38] 100% | residual activity [39] 100% | residual activity [40] 89% | inhibition [41] 20.1% | residual activity [42] 96% | residual activity [43] 98% | residual activity [44] 100% | residual activity [45] 100% | residual activity [46] 100%

Nc1c(C(=O)NCc2ccc(C(=O)NCCCC3CCCCC3)cc2)cnn1-c1ccccc1 [SR-318]
inactive: residual activity [1] 84% | residual activity [2] 100% | residual activity [3] 95% | residual activity [4] 100% | residual activity [5] 100% | residual activity [6] 89% | residual activity [7] 100% | residual activity [8] 100% | residual activity [9] 91% | residual activity [10] 100% | residual activity [11] 100% | residual activity [12] 100% | residual activity [13] 96% | residual activity [14] 100% | residual activity [15] 100% | residual activity [16] 100% | residual activity [17] 92% | residual activity [18] 100% | residual activity [19] 100% | residual activity [20] 98% | residual activity [21] 100% | residual activity [22] 87% | residual activity [23] 100% | residual activity [24] 100% | residual activity [25] 100% | residual activity [26] 100% | residual activity [27] 74% | residual activity [28] 100% | residual activity [29] 100% | residual activity [30] 76% | residual activity [31] 82% | residual activity [32] 90% | residual activity [33] 77% | residual activity [34] 100% | residual activity [35] 100% | inhibition [36] 8.69% | residual activity [37] 100% | residual activity [38] 65% | residual activity [39] 100% | residual activity [40] 100% | inhibition [41] 45.1% | residual activity [42] 100% | residual activity [43] 100% | residual activity [44] 100% | residual activity [45] 100% | residual activity [46] 95%
